Laboratory results reported in patent US3974140A, “Ureidoacetamido-penicillins” (Bayer Aktiengesellschaft, priority 1970, dated 1976).

Assays:
Test in all cases: MIC, liquid medium test tube series dilution test
[1] = system: E. coli 183/58; assay type: cell-based; conditions: E. coli 183/58, 24 hours, 37°C
Method: (§1) The chemotherapeutic activity of the new penicillins was tested in vivo and in vitro. The in vitro inhibition values (MIC = minimum inhibition concentration (see Tables 1 and 2) were determined in a liquid medium in the test tube series dilution test, with readings being taken after 24 hours' incubation at 37°C. The MIC is indicated by the non-turbid test tube in the dilution series. A complete medium of the following composition was used as the nutrient medium:
(§2) The figures quoted in the Examples for the effectiveness against certain bacteria (units/ml) are minimum inhibitory concentrations in the test tube series dilution test after 24 hours' incubation.

[2] = system: E. coli 14; assay type: cell-based; conditions: E. coli 14, 24 hours, 37°C
Method: as §1, §2

[3] = system: Streptoc. faec. ATCC 9790; assay type: cell-based; conditions: Strep. faec. (Enterococcus) ATCC 9790, 24 hours, 37°C
Method: as §1, §2

[4] = system: E. coli C 165; assay type: cell-based; conditions: E. coli C 165, 24 hours, 37°C
Method: as §1, §2

[5] = system: E. coli A 261; assay type: cell-based; conditions: E. coli A 261, 24 hours, 37°C
Method: as §1, §2

[6] = system: Klebsiella 63; assay type: cell-based; conditions: Klebsiella 63, 24 hours, 37°C
Method: as §1, §2

[7] = system: Klebsiella K 10; assay type: cell-based; conditions: Klebsiella K 10, 24 hours, 37°C
Method: as §1, §2

[8] = system: Proteus vulg. 3400; assay type: cell-based, Proteus vulgaris; conditions: Proteus vulg. 3400, 24 hours, 37°C
Method: as §1, §2

[9] = system: Proteus vulg. 1017; assay type: cell-based, Proteus vulgaris; conditions: Proteus vulg. 1017, 24 hours, 37°C
Method: as §1, §2

[10] = system: Staph. aureus 133; assay type: cell-based, Staphylococcus aureus; conditions: Staph. aureus 133, 24 hours, 37°C
Method: as §1, §2

[11] = system: Psdm. aerug. Walter; assay type: cell-based, Pseudomonas aerug.; conditions: 24 hours, 37°C
Method: as §1, §2

[12] = system: Psdm. aerug. Bonn; assay type: cell-based, Pseudomonas aerug.; conditions: 24 hours, 37°C
Method: as §1, §2

Compound	MIC [1]	MIC [2]	MIC [3]	MIC [4]	MIC [5]	MIC [6]	MIC [7]	MIC [8]	MIC [9]	MIC [10]	MIC [11]	MIC [12]	further results
C=CCN(C(C)=O)C(=O)N[C@@H](C(=O)N[C@@H]1C(=O)N2[C@@H]1SC(C)(C)[C@@H]2C(=O)O)c1ccccc1 [Example 1, Sodium D(-)-α-(3-acetyl-3-allylureido)-benzylpenicillin]	100 units/ml	25 units/ml	200 units/ml	100 units/ml	> 400 units/ml	50 units/ml	50 units/ml	200 units/ml	400 units/ml	1.6 units/ml	200 units/ml	400 units/ml	
CN(C(=O)CCCCl)C(=O)N[C@@H](C(=O)N[C@@H]1C(=O)N2[C@@H]1SC(C)(C)[C@@H]2C(=O)O)c1ccccc1 [Example 2, Sodium D(-)-α-(3-γ-chlorobutyryl-3-methyl-ureido)-benzylpenicillin]	12.5 units/ml	3.1 units/ml	200 units/ml	12.5 units/ml	400 units/ml	50 units/ml	50 units/ml	25 units/ml	100 units/ml	~ 0.8 units/ml	100 units/ml	100 units/ml	
Cc1ccc(C(NC(=O)N(C)C(=O)c2ccccc2)C(=O)N[C@@H]2C(=O)N3[C@@H]2SC(C)(C)[C@@H]3C(=O)O)cc1 (stereo partly drawn) [Example 4, Sodium D,L-α-(3-benzoyl-3-methyl-ureido)-p-methylbenzyl-penicillin]	4-20 units/ml	0.8-4 units/ml	100-500 units/ml	4-20 units/ml	100-500 units/ml	20-100 units/ml	20-100 units/ml	4-20 units/ml	4-20 units/ml		20-100 units/ml	20-100 units/ml	
COC(=O)N(C)C(=O)NC(C(=O)N[C@@H]1C(=O)N2[C@@H]1SC(C)(C)[C@@H]2C(=O)O)c1c(Cl)cccc1Cl (stereo partly drawn) [Example 9, Sodium D,L-α-(3-methoxycarbonyl-3-methyl-ureido)-2,6-dichlorobenzylpenicillin]	100-500 units/ml	20-100 units/ml	~ 500 units/ml	100-500 units/ml	> 500 units/ml	> 500 units/ml	> 500 units/ml	> 500 units/ml	> 500 units/ml	0.8-4 units/ml	> 500 units/ml	> 500 units/ml	
C=CCN(C(=O)NC(C(=O)N[C@@H]1C(=O)N2[C@@H]1SC(C)(C)[C@@H]2C(=O)O)c1ccc(OC)cc1)C(=O)c1ccccc1 (stereo partly drawn) [Example 14, Sodium D,L-α-(3-benzoyl-3-allyl-ureido)-4-methoxybenzylpenicillin]	20-100 units/ml	4-20 units/ml	100-500 units/ml	20-100 units/ml	> 500 units/ml	20-100 units/ml	20-100 units/ml	~ 100 units/ml	100-500 units/ml	0.8-4 units/ml	100-500 units/ml	100-500 units/ml	
C=CCN(C(=O)NC(C(=O)N[C@@H]1C(=O)N2[C@@H]1SC(C)(C)[C@@H]2C(=O)O)c1c(Cl)cccc1Cl)C(=O)c1ccccc1 (stereo partly drawn) [Example 15, Sodium D,L-α-(3-benzoyl-3-allyl-ureido)-2,6-dichlorobenzylpenicillin]	100-500 units/ml	20-100 units/ml	> 500 units/ml	100-500 units/ml	> 500 units/ml	> 500 units/ml	> 500 units/ml	> 500 units/ml	> 500 units/ml	0.8-4 units/ml	> 500 units/ml	> 500 units/ml	
C=CCN(C(C)=O)C(=O)NC(C(=O)N[C@@H]1C(=O)N2[C@@H]1SC(C)(C)[C@@H]2C(=O)O)c1cccs1 (stereo partly drawn) [Example 17, Sodium D,L-α-(3-acetyl-3-allyl-ureido)-2-thienylmethylpenicillin]	20-100 units/ml	4-20 units/ml	20-100 units/ml	20-100 units/ml	> 500 units/ml	20-100 units/ml	20-100 units/ml	100-500 units/ml	> 500 units/ml	< 0.8 units/ml	100-500 units/ml	100-500 units/ml	
CC1(C)S[C@@H]2[C@H](NC(=O)C(NC(=O)N3CCNC3=O)c3ccc(Cl)cc3)C(=O)N2[C@H]1C(=O)O (stereo partly drawn) [Example 48 A, Sodium α-[(imidazolidin-2-on-1-yl)-carbonylamino]-p-chlorobenzylpenicillin]						50 units/ml	100 units/ml						MIC ([3]; listed as 48 A): 25 units/ml; MIC ([4]; listed as 48 A): 12,5 units/ml; MIC ([8]; listed as 48 A): 50 units/ml; MIC ([9]; listed as 48 A): 25 units/ml; MIC ([12]; listed as 48 A): 25 units/ml
COC(=O)N(C)C(=O)N[C@@H](C(=O)N[C@@H]1C(=O)N2[C@@H]1SC(C)(C)[C@@H]2C(=O)O)c1ccccc1 [Example 96, Sodium D(-)-α-(3-methoxycarbonyl-3-methyl-ureido)-benzylpenicillin]	25 units/ml	6.25 units/ml	25 units/ml	12.5 units/ml		200 units/ml	200 units/ml	50 units/ml	50 units/ml	1.56 units/ml	25 units/ml	25 units/ml	MIC ([1]; listed as (B) of Example 10): 25 units/ml; MIC ([2]; listed as (B) of Example 10): 6.25 units/ml; MIC ([6]; listed as (B) of Example 10): 200 units/ml; MIC ([7]; listed as (B) of Example 10): 200 units/ml; MIC ([10]; listed as (B) of Example 10): 1.56 units/ml; MIC ([11]; listed as (B) of Example 10): 25 units/ml; MIC ([12]; listed as (B) of Example 10): 25 units/ml
CC(C)OC(=O)N(C)C(=O)N[C@@H](C(=O)N[C@@H]1C(=O)N2[C@@H]1SC(C)(C)[C@@H]2C(=O)O)c1ccccc1 [Example 97, Sodium D(-)-α-(3-i-propoxycarbonyl-3-methyl-ureido)-benzylpenicillin]	6.25 units/ml	6.25 units/ml		25 units/ml		50 units/ml	400 units/ml	25 units/ml	25 units/ml		50 units/ml	25 units/ml	MIC ([1]; listed as (B) of Example 11): 6.25 units/ml; MIC ([2]; listed as (B) of Example 11): 6.25 units/ml; MIC ([4]; listed as (B) of Example 11): 25 units/ml; MIC ([11]; listed as (B) of Example 11): 50 units/ml; MIC ([12]; listed as (B) of Example 11): 25 units/ml
CN(C(=O)N[C@@H](C(=O)N[C@@H]1C(=O)N2[C@@H]1SC(C)(C)[C@@H]2C(=O)O)c1ccccc1)C(=O)c1c(Cl)cccc1Cl [Example 141, Sodium D(-)-α-(3, o,o'-dichlorobenzoyl-3-methyl-ureido)-benzyl-penicillin]	1.6 units/ml	0.8 units/ml		3.1 units/ml	50 units/ml	12.5 units/ml	6.25 units/ml	3.1 units/ml	3.1 units/ml		6.25 units/ml	12.5 units/ml	
